Measured values: paper PMC6891286, “Towards the Development of an In vivo Chemical Probe for Cyclin G Associated Kinase (GAK)” (Molecules, 2019)

Assays:
GAK [1] = target: T1, GAK (Homo sapiens, UniProt O14976); conditions: TR-FRET assay; read-out: Biochemical GAK Ki; cited from earlier work
T1 sequence (O14976 1-1311): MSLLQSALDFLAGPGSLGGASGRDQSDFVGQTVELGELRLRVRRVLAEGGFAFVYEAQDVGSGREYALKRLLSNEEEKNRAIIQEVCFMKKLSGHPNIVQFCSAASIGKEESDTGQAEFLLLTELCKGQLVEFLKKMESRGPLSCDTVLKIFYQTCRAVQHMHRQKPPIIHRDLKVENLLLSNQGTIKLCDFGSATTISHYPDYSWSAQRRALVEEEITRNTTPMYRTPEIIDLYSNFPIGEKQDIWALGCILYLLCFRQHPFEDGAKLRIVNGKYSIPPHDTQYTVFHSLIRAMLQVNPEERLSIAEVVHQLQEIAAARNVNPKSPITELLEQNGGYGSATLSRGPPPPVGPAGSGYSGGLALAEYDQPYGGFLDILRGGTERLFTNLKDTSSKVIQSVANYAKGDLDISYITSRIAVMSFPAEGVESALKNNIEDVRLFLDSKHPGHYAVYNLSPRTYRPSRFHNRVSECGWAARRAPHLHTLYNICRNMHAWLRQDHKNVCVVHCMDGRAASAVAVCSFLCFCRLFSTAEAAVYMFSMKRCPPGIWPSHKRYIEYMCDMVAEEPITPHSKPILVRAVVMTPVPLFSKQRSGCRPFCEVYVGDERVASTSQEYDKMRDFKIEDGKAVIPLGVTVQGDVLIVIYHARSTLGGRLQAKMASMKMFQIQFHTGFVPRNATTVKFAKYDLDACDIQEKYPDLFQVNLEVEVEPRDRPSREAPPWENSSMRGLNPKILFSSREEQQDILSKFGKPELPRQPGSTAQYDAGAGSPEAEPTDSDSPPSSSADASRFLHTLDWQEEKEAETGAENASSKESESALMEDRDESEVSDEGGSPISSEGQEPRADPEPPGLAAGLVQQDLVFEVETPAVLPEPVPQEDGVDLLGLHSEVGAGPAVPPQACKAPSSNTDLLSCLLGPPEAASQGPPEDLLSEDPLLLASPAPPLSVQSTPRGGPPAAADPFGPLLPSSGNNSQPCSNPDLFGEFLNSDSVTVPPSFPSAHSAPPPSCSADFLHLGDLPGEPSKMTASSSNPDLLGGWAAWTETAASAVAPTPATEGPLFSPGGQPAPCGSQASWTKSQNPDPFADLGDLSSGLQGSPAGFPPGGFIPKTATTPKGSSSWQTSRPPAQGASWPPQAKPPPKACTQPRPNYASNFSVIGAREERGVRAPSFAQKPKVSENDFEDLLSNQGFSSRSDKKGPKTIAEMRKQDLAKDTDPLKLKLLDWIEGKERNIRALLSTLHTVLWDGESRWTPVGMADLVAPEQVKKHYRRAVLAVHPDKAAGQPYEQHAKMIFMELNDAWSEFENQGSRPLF

GAK [2] = target: T1, GAK; experiment: live cell NanoBRET target engagement assay; format: cell-based; conditions: nanoBRET; mean average, n = 2

SMILES | Ki (GAK [1]) | IC50 (GAK [2])
COc1cc2nccc(Nc3cc(OC)c(OC)c(OC)c3)c2cc1OC [Compound 8] | 0.00054 µM | –
Brc1ccc2nccc(Nc3ccc4cn[nH]c4c3)c2c1 [Compound 35, 6-Bromo-N-(1H-indazol-6-yl)quinolin-4-amine] | – | 1.4 µM
